The target of test [1] is T1, Thromboxane A2 receptor (Rattus norvegicus, UniProt P34978).
T1 sequence (P34978 whole entry): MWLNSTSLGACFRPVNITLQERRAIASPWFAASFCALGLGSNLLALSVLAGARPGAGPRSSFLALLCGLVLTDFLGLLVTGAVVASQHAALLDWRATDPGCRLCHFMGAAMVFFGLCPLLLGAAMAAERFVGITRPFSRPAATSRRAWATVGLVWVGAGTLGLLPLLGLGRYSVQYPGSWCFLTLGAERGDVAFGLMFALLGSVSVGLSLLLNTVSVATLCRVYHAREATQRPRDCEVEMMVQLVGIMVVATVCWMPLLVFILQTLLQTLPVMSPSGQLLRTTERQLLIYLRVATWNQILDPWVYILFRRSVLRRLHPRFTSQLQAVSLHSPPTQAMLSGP
The experiment in a line: Activity against thromboxane A2 receptor evaluated by contraction of isolated rat thoracic aorta. The test is classed as tissue-based.

For test [2], the target named is T2, Thromboxane A2 receptor (Homo sapiens, UniProt P21731).
T2 sequence (P21731 whole entry): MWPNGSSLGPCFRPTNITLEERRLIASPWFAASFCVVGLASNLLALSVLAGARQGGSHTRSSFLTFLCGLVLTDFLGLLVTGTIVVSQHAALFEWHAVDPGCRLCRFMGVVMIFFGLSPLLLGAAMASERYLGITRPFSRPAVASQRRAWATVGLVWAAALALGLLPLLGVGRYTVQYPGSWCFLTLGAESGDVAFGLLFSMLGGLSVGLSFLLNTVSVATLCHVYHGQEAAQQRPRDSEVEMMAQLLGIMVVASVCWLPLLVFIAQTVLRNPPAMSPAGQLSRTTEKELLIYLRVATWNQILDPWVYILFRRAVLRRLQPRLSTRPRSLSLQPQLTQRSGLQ
The experiment in a line: Activity against thromboxane A2 receptor evaluated by aggregation of human platelets at 0-10 uM; Not active.

The source of these data is ChEMBL document CHEMBL1149963, “Synthesis of a novel series of 3-oxo-2,4-dioxobicyclo[3.2.1]octanes: additional evidence for two thromboxane receptor subtypes” (Bioorg Med Chem Lett, 1994).

On to `CCCCCC(O)/C=C/[C@@H]1[C@@H](C/C=C\CCCC(=O)NC(C)C)[C@@H]2C[C@H]1OC(=O)O2` (stereo partly specified), for which the concentration giving a half-maximal response (EC50) at Thromboxane A2 receptor [1] was 0.324 µM; at Thromboxane A2 receptor [2], “Not Active”. Consider `CCCCCC(O)/C=C/[C@@H]1[C@@H](C/C=C\CCCC(=O)O)[C@@H]2C[C@H]1OC(=O)O2` (stereo partly specified), for which the EC50 on Thromboxane A2 receptor [1] was 0.00023 µM.

`CCCCCC(O)/C=C/[C@@H]1[C@@H](C/C=C\CCCC(N)=O)[C@@H]2C[C@H]1OC(=O)O2` (stereo partly specified) showed a concentration giving a half-maximal response (EC50) at Thromboxane A2 receptor [1] of 0.058 µM. Regarding `CCCCCC(O)/C=C/[C@@H]1[C@@H](C/C=C\CCCCO)[C@@H]2C[C@H]1OC(=O)O2` (stereo partly specified), the EC50 is 0.001 µM at Thromboxane A2 receptor [1] and “Not Active” at Thromboxane A2 receptor [2].
